According to patent US11998541B2, “Method for alleviating chronic liver disease using Rosoxacin” (National Yang Ming Chiao Tung University, priority 2022, dated 2024):
“Also recorded” adds a separate entry of the source.

Legend:
male C57BL/6JNarl mice [1] = assay: High-fat diet induced NAFLD in mice, oral rosoxacin; type: in vivo; settings: for lipid droplets accumulated in liver (hematoxylin-eosin histology) / aspartate transaminase (AST) content in serum / alanine transaminase (ALT) content in serum: HFD; for lipid droplets accumulated in liver (hematoxylin-eosin histology): FIG. 5; for aspartate transaminase (AST) content in serum: FIG. 6; for alanine transaminase (ALT) content in serum: FIG. 7; for liver weight: FIG. 4
Text: The male C57BL/6JNarl mice were randomly divided into a normal control group, a pathological control group, and two experimental groups (i.e., experimental groups 1 and 2) (n=5 per group). The mice in the normal control group were fed ad libitum for a total of 14 weeks with a normal chow diet (NCD) (Altromin, Cat. No. 1320). In addition, the mice in each of the pathological control group and the experimental groups 1 and 2 were fed ad libitum for a total of 14 weeks with a high-fat diet (HFD) (Research Diets, Cat. No. D12492) containing 60% fat, so as to induce NAFLD.
On the 5th week after feeding the diet to the mice in each group as described in section B of this example, the mice in each of the experimental groups 1 and 2 were also fed, via oral gavage, with the rosoxacin solution prepared in section A of this example, at a respective dose of 10 mg/kg per mouse and 50 mg/kg per mouse. In addition, the mice in each of the normal control group and the pathological control group were fed, via oral gavage, with PBS at a volume of 150 μL. Each mouse was fed once every two days until the end of the 14th week after feeding with the diets.
Prior to the feeding of the diets as described in section B of this example (i.e., at the 0th week), on the 1st day of each week after starting the feeding of the diets, and at the end of the 14th week after starting the feeding of the diets, the body weight of each mouse was measured.
After completion of the determination of body weight at the end of the 14th week, the mice in each group were sacrificed using CO2, and blood samples were collected via cardiac puncture at the same time. Each of the blood samples was then subjected to centrifugation at 4° C. under a speed of 1200 g for […], so as to obtain a serum sample. In addition, liver tissue was obtained from each mouse carcass, and then was subjected to weight measurement. The data thus obtained were analyzed according to the procedures as described in section 1 of “General Procedures”.
The liver tissue of each mouse obtained in section D of this example was subjected to a fixation treatment with a 10% paraformaldehyde solution for 24 hours. Next, the fixed liver tissue was subjected to a dehydration treatment performed in sequence using ethanol solutions having concentrations of […], respectively. After that, the dehydrated liver tissue was washed with xylene, and was then embedded with paraffin, followed by slicing, so as to obtain a tissue section having a thickness of 5 μm.
After dewaxing, the tissue section was subjected to hematoxylin-eosin staining using a staining protocol well-known to those skilled in the art, and was then observed under an optical microscope (Leica, Cat. No. DM2500) at a magnification of 20×.
The serum sample of each mouse obtained in section D of this example was subjected to determination of liver function indexes (i.e., aspartate transaminase (AST) and alanine transaminase (ALT)) which was entrusted to Bio-Cando Co., Ltd., so as to assess the degree of liver injury in the mouse. The data thus obtained were analyzed according to the procedures as described in section 1 of “General Procedures”.

male C57BL/6JNarl mice [2] = assay: CDAA diet induced NASH / liver fibrosis in mice, oral rosoxacin; type: in vivo; settings: 50 mg/kg oral gavage once every two days, week 3 to 6 of CDAA diet
Text: The male C57BL/6JNarl mice were randomly divided into a normal control group, a pathological control group, and an experimental group (n=6 per group). The mice in the normal control group were fed ad libitum for a total of 6 weeks with a normal chow diet (NCD) (Altromin, Cat. No. 1320). In addition, the mice in each of the pathological control group and the experimental group were fed ad libitum for a total of 6 weeks with a choline deficient L-amino acid defined diet (CDAA) (Research Diets, Cat. No. A21060401) containing 45% fat and 0.2% cholesterol, so as to induce NASH.
On the 3rd week after feeding the diet to the mice in each group as described in the preceding paragraph, the mice in the experimental group were also fed, via oral gavage, with the rosoxacin solution prepared in section A of Example 2, at a dose of 50 mg/kg per mouse. In addition, the mice in each of the normal control group and the pathological control group were fed, via oral gavage, with PBS at a volume of 150 μL. Each mouse was fed once every two days until the end of the 6th week after feeding with the diets. […]
Next, ImageJ Imaging software was used for quantitatively calculating the percentage (%) of Sirius Red-stained area. […] The data thus obtained were analyzed according to the procedures as described in section 1 of “General Procedures”.

HepG2 cells [3] = assay: Amount of accumulated lipid droplets in fatty acid-treated HepG2 cells (BODIPY, flow cytometry); type: cell-based, human; settings: FIG. 2
Experimental: The HepG2 cells prepared in section 1 of “General Experimental Materials” were divided into 6 groups, including a normal control group, two comparative groups (i.e., comparative groups 1 and 2), a pathological control group, and two experimental groups (i.e., experimental groups 1 and 2). Each group of the HepG2 cells was incubated in a respective well of a 24-well culture plate containing 1 mL of DMEM medium at 1.2×10^5 cells/well, followed by cultivation in an incubator with culture conditions set at 37° C., 5% CO2. On the 24th and 48th hours after cultivation, the culture medium in each well was removed, and the cells of the respective group were added with the respective testing agent as shown in Table 2 below. […] After that, the supernatant was poured off, and the pellet was subjected to a fixation treatment with 4% paraformaldehyde (in PBS) for 15 minutes, followed by determining the fluorescence intensity using a flow cytometer (BD Biosciences, Cat. No. BD Accuri C6). The BODIPY was excited by an argon-ion laser (488 nm) to generate fluorescence. The fluorescence intensity was then measured at a wavelength of 504 nm, and 10,000 cells were analyzed each time. The data thus obtained were analyzed using BD Accuri C6 software, so as to obtain the mean fluorescence intensity (MFI) value in each group. […]

HepG2 cells [4] = assay: Relative amount of accumulated lipid droplets in HepG2 cells, different quinolone antibiotics (BODIPY); type: cell-based, human; settings: fatty acid mixture + antibiotic 50 μM (24th, 48th h), 900 μM (72nd h); FIG. 11
Experimental: The HepG2 cells prepared in section 1 of “General Experimental Materials” were divided into 7 groups, including a pathological control group, an experimental group, and five comparative groups (i.e., comparative groups 1 to 5). Each group of the HepG2 cells was incubated in a respective well of a 24-well culture plate containing 1 mL of DMEM medium at 1.2×10^5 cells/well, followed by cultivation in an incubator with culture conditions set at 37° C., 5% CO2.
On the 24th and 48th hours after cultivation, the culture medium in each well was removed, and the cells of the respective group were added with the respective testing agent as shown in Table 5 below. […]
The cell suspension of the respective one of the pathological control group, the experimental group, and the comparative groups 1 to 5 obtained in section B of this example was added with 50 μL of BODIPY solution (DMEM containing 13 μg/mL BODIPY 493/504 (Sigma-Aldrich, Cat No. 790389)), followed by placing on ice for 30 minutes in the dark to allow neutral lipid staining to be carried out. […] After that, the supernatant was poured off, and the pellet was subjected to a fixation treatment with 4% paraformaldehyde (in PBS) for 15 minutes, followed by determination of fluorescence intensity using a flow cytometer (BD Biosciences, Cat. No. BD Accuri C6).
The BODIPY was excited by an argon-ion laser (488 nm) to generate fluorescence. […]

α-SMA = assay: Expression level of α-SMA in fatty acid-treated LX-2 cells (Western blotting); type: cell-based, human; settings: fatty acid mixture + rosoxacin 50 μM (24th, 48th h), 900 μM (72nd h), p<0.0001, FIG. 8
Experimental: Each group of the LX-2 cells was incubated in a respective well of a 24-well culture plate containing 1 mL of DMEM medium at 1.2×10^5 cells/well, followed by cultivation in an incubator with culture conditions set at 37° C., 5% CO2. On the 24th and 48 th hours after cultivation, the culture medium in each well was removed, and the cells of the respective group were added with the respective testing agent as shown in Table 3 below. In addition, on the 72nd hour after cultivation, the cell culture of the respective group was added with the respective testing agent as shown in Table 3. On the 96th hour after cultivation, the liquid in each well was removed, and the cells were washed with PBS, followed by adding 500 μL of trypsin-EDTA to detach the cells from the bottom of the plate. Subsequently, 1 mL fresh DMEM medium was added to each well to neutralize trypsin activity, followed by centrifugation at 4° C. under a speed of 300 g for 3 minutes, so as to form a supernatant and a pellet. After that, the supernatant was poured off, and the resultant cell pellet was collected. […] The protein concentration in the total protein sample was determined using bicinchoninic acid assay kit (Thermo, Cat. No. 23227) in accordance with the manufacturer's instructions. […] Subsequently, ImageJ Imaging Software was used for semi-quantitatively calculating the corresponding protein expression level. […]

[5] = experimental group 1: 10 mg/kg oral gavage once every two days
[6] = experimental group 2: 50 mg/kg oral gavage once every two days

CCn1cc(C(=O)O)c(=O)c2ccc(-c3ccncc3)cc21 [rosoxacin, 1-ethyl-4-oxo-7-(4-pyridyl)-1,4-dihydroquinoline-3-carboxylic acid]
lipid droplets accumulated in liver (hematoxylin-eosin histology) (male C57BL/6JNarl mice [1]; [5]): significantly lower than those in the pathological control group
aspartate transaminase (AST) content in serum (male C57BL/6JNarl mice [1]; [5]): apparently or significantly lower than those determined in the pathological control group
alanine transaminase (ALT) content in serum (male C57BL/6JNarl mice [1]; [5]): apparently or significantly lower than those determined in the pathological control group
liver weight (male C57BL/6JNarl mice [1]; experimental group 1: 10 mg/kg oral gavage once every two days, week 5 to 14 of HFD, 10 mg/kg): apparently or significantly lower than that determined in the pathological control group
lipid droplets accumulated in liver (hematoxylin-eosin histology) (male C57BL/6JNarl mice [1]; [6]): significantly lower than those in the pathological control group
aspartate transaminase (AST) content in serum (male C57BL/6JNarl mice [1]; [6]): apparently or significantly lower than those determined in the pathological control group
alanine transaminase (ALT) content in serum (male C57BL/6JNarl mice [1]; experimental group 2: 50 mg/kg oral gavage once every two days, p<0.05): significantly lower than that determined in the pathological control group
liver weight (male C57BL/6JNarl mice [1]; experimental group 2: 50 mg/kg oral gavage once every two days, week 5 to 14 of HFD, 50 mg/kg): apparently or significantly lower than that determined in the pathological control group; also recorded: even lower than that of the normal control group
body weight (male C57BL/6JNarl mice [1]; experimental group 2: 50 mg/kg oral gavage once every two days, week 5 to 14 of HFD, p<0.05, FIG. 3): significantly lower than that determined in the pathological control group
lipid droplets accumulated in liver (hematoxylin-eosin histology) (male C57BL/6JNarl mice [2]; FIG. 9): significantly less than those in the pathological control group
percentage of Sirius Red-stained area (male C57BL/6JNarl mice [2]; p<0.0001, FIG. 10): significantly lower than that determined in the pathological control group
mean fluorescence intensity (MFI) value (accumulated lipid droplets) (HepG2 cells [3]; experimental group 1: fatty acid mixture + rosoxacin 10 μM (24th, 48th h), 180 μM (72nd h)): lower than that of the pathological control group
mean fluorescence intensity (MFI) value (accumulated lipid droplets) (HepG2 cells [3]; experimental group 2: fatty acid mixture + rosoxacin 50 μM (24th, 48th h), 900 μM (72nd h), p<0.001): significantly lower than that determined in the pathological control group
relative percentage of MFI value (pathological control group = 100%) (HepG2 cells [4]): significantly lower than that determined in the pathological control group
expression level of α-SMA (normalized to β-actin) (α-SMA): significantly lower than that determined in the pathological control group; also recorded: even lower than that determined in the normal control group
